Results: patent US12528818B2, “Compositions and methods for inhibition of RAS” (Leidos Biomedical Research, Inc., priority 2021, dated 2026)
Like-named read-outs stand apart in the source and are kept apart here.

System: pERK in NCI-H358 cells
Test: Cell-based pERK HTRF assay (pERK inhibition in H358 cells)
Conditions: pERK inhibition IC50, NCI-H358 cells, 30 min incubation, read-out: PERK in H358 cell

Structure (SMILES)	IC50 (Homo sapiens, NCI-H358, 0.5 h)	IC50
C=CC(=O)N1CC(N(c2nc(OCC3CCCN3C)nc3c(F)c(-c4ccc(F)c5sc(N)nc45)c(Cl)cc23)C(C)C)C1 (stereo not drawn) [Compound 159]	> 1 µM	–
C=CC(=O)N1C[C@H](C)N(c2nc(OC[C@@]34CCCN3C[C@H](OC)C4)nc3c(F)c(-c4ccc(F)c5sc(N)nc45)c(C(F)(F)F)cc23)C[C@H]1C [Compound 297]	–	< 0.1 µM
C=CC(=O)N1C[C@@H](Nc2nc(OCC34CCCN3CCC4)nc3c(F)c(-c4ccc(F)c5sc(N)nc45)c(Cl)cc23)[C@H]1C [Compound 197]	> 1 µM	–
C=CC(=O)N1C[C@@H](F)[C@@H](N(CC)c2nc(OC[C@@]34CCCN3C[C@H](F)C4)nc3c(C#N)c(-c4ccc(F)c5sc(N)c(C#N)c45)c(Cl)cc23)C1 [Compound 380]	< 0.1 µM	–
C=CC(=O)N1CC[C@H](N(C)c2nc(OC[C@@]34CCCN3C[C@H](F)C4)nc3c(F)c(-c4ccc(F)c5sc(N)c(C#N)c45)c(Cl)cc23)[C@@H]1C (atropisomer, axis not shown) [Compound 467]	< 0.1 µM	–
C=CC(=O)N1C[C@H](C)N(c2nc(OC[C@@]34CCCN3C[C@H](F)C4)nc3c(F)c(-c4ccc(F)c5sc(N)c(C#N)c45)c(C(F)(F)F)cc23)C[C@H]1C (single isomer, unassigned) [Compound 313]	< 0.1 µM	–
C=CC(=O)N1CCC(N(C)c2nc(OC[C@@H]3CC4(CC4)CN3C)nc3c(F)c(-c4ccc(F)c5sc(N)c(C#N)c45)c(Cl)cc23)[C@H]1C (stereo partly drawn) [Compound 448]	0.1 to 1 µM	–
C=CC(=O)N1CC(Nc2nc(OC[C@@H]3CCCN3C)nc3c(F)c(-c4cccc5oc(N)nc45)c(Cl)cc23)C1 [Compound 88]	> 1 µM	–
C=CC(=O)N1C[C@H](C)N(c2nc(OCC34CCCN3C[C@H](F)C4)nc3c(F)c(-c4ccc(F)c5sc(C(F)F)nc45)c(C(F)(F)F)cc23)C[C@H]1C (stereo partly drawn) [Compound 307]	< 0.1 µM	–
C=CC(=O)N1CCC(N(C)c2nc(OC[C@@]34CCCN3C[C@H](F)C4)nc3cc(-c4ccc(F)c5sc(N)c(C#N)c45)ccc23)[C@H]1COC (stereo partly drawn) [Compound 389, 4-(4-((1-acryloyl-2-(methoxymethyl)pyrrolidin-3-yl)(methyl)amino)-2-(((2R,7aS)-2-fluorotetrahydro-1H-pyrrolizin-7a(5H)-yl)methoxy)quinazolin-7-yl)-2-amino-7-fluorobenzo[b]thiophene-3-carbonitrile]	< 0.1 µM	–
C=CC(=O)N1CCN(c2nc(OC[C@@]34CCCN3C[C@H](F)C4)nc3c(F)c(-c4ccc(F)c5sc(N)c(C#N)c45)c(C(F)(F)F)cc23)CC12CC2 [Compound 322]	< 0.1 µM	–
C=CC(=O)N1C[C@H](C)N(c2nc(OC[C@@]34CCCN3C[C@H](F)C4)nc3c(F)c(-c4ccc(F)c5sc(N)nc45)c(Cl)cc23)C[C@H]1C [Compound 266]	< 0.1 µM	–
C=CC(=O)N1CCN(c2nc(OC[C@@]34CCCN3C[C@H](F)C4)nc3c(F)c(-c4ccc(F)c5sc(N)nc45)c(C(F)(F)F)cc23)[C@@H](C)C1 [Compound 189]	< 0.1 µM	–

The remaining lines, values ahead:

IC50 (Homo sapiens, NCI-H358, 0.5 h)	IC50	Structure (SMILES)
< 0.1 µM	–	C=CC(=O)N1CCC(N(C)c2nc(OC[C@@]34CCCN3C[C@H](OC)C4)nc3c(F)c(-c4ccc(F)c5sc(N)c(C#N)c45)c(Cl)cc23)[C@H]1C (stereo partly drawn) [Compound 474]
< 0.1 µM	–	C=CC(=O)N1CCC(N(CC)c2nc(OC[C@@H]3C[C@@H](OC)CN3C)nc3c(F)c(-c4ccc(F)c5sc(N)c(C#N)c45)c(C(F)(F)F)cc23)[C@H]1C (stereo partly drawn) [Compound 392]
< 0.1 µM	–	C=CC(=O)N1CC[C@@H](N(C)c2nc(OC[C@@]34CCCN3C[C@H](OC)C4)nc3c(F)c(-c4ccc(F)c5sc(N)nc45)c(C(F)(F)F)cc23)C1 [Compound 290]
< 0.1 µM	–	C=CC(=O)N1C[C@H](C)N(c2nc(N3CC(N4CC(OC)C4)C3)nc3c(F)c(-c4ccc(F)c5sc(N)c(C#N)c45)c(C(F)(F)F)cc23)C[C@H]1C [Compound 331]
< 0.1 µM	–	C=CC(=O)N1CCC(N(CC)c2nc(OC[C@@]34CCCN3C[C@H](F)C4)nc3c(C#N)c(-c4ccc(F)c5sc(N)c(C#N)c45)ccc23)[C@H]1C (stereo partly drawn) [Compound 415, 4-((1-acryloyl-2-methylpyrrolidin-3-yl)(ethyl)amino)-7-(2-amino-3-cyano-7-fluorobenzo[b]thiophen-4-yl)-2-(((2R,7aS)-2-fluorotetrahydro-1H-pyrrolizin-7a(5H)-yl)methoxy)quinazoline-8-carbonitrile]
< 0.1 µM	–	C=CC(=O)N1CCC(N(C)c2nc(OC[C@@H]3CCCN3CC)nc3c(F)c(-c4ccc(F)c5sc(N)c(C#N)c45)c(C(F)(F)F)cc23)[C@H]1C (stereo partly drawn) [Compound 451]
< 0.1 µM	–	C=CC(=O)N1C[C@@H](F)[C@@H](N(C)c2nc(OC[C@@]34CCCN3C[C@H](F)C4)nc3cc(-c4ccc(F)c5sc(N)c(C#N)c45)c(C(F)(F)F)cc23)C1 [Compound 315, 4-(4-(((3S,4R)-1-acryloyl-4-fluoropyrrolidin-3-yl)(methyl)amino)-2-(((2R,7aS)-2-fluorotetrahydro-1H-pyrrolizin-7a(5H)-yl)methoxy)-6-(trifluoromethyl)quinazolin-7-yl)-2-amino-7-fluorobenzo[b]thiophene-3-carbonitrile]
< 0.1 µM	–	C=CC(=O)N1C[C@H](C)N(c2nc(OC[C@@H]3C[C@@H](OC)CN3C)nc3c(F)c(-c4ccc(F)c5sc(N)c(C#N)c45)c(C(F)(F)F)cc23)C[C@H]1C [Compound 408]
< 0.1 µM	–	C=CC(=O)N1C[C@H](C)N(c2nc(N3CC(N4CC5(CC5)C4)C3)nc3c(F)c(-c4ccc(F)c5sc(N)c(C#N)c45)c(C(F)(F)F)cc23)C[C@H]1C [Compound 338, 4-(2-(3-(5-azaspiro[2.3]hexan-5-yl)azetidin-1-yl)-4-((2S,5R)-4-acryloyl-2,5-dimethylpiperazin-1-yl)-8-fluoro-6-(trifluoromethyl)quinazolin-7-yl)-2-amino-7-fluorobenzo[b]thiophene-3-carbonitrile]
< 0.1 µM	–	C=CC(=O)N1CCN(c2nc(OC[C@@]34CCCN3C[C@H](F)C4)nc3c(F)c(-c4ccc(F)c5sc(N)c(C#N)c45)c(C(F)(F)F)cc23)CC1 [Compound 345]
< 0.1 µM	–	C=CC(=O)N1CC[C@@H](N(C)c2nc(OC[C@@]34CCCN3C[C@H](F)C4)nc3c(F)c(-c4ccc(F)c5sc(N)c(C#N)c45)ccc23)C1 [Compound 311]
< 0.1 µM	–	C=CC(=O)N1[C@H](C)CN(c2nc(OC[C@]34CCCN3C[C@H](F)C4)nc3c(F)c(-c4ccc(F)c5sc(N)nc45)c(C(F)(F)F)cc23)C[C@@H]1C [Compound 215]
< 0.1 µM	–	C=CC(=O)N1C[C@@H](F)[C@@H](N(C)c2nc(OC[C@@]34CCCN3C[C@H](F)C4)nc3c(F)c(-c4ccc(F)c5sc(N)c(C#N)c45)c(C(F)(F)F)cc23)C1 [Compound 316]
< 0.1 µM	–	C=CC(=O)N1CC[C@@H](N(CC)c2nc(OC[C@@]34CCCN3C[C@H](F)C4)nc3c(F)c(-c4ccc(F)c5sc(N)c(C#N)c45)c(C(F)(F)F)cc23)[C@H]1C [Compound 403]
< 0.1 µM	–	C=CC(=O)N1C[C@H](F)[C@@H](N(C)c2nc(OC[C@@]34CCCN3C[C@H](F)C4)nc3cc(-c4ccc(F)c5sc(N)nc45)c(C(F)(F)F)cc23)C1 [Compound 335]
< 0.1 µM	–	C=CC(=O)N1C[C@@H](F)[C@@H](N(C)c2nc(OC[C@@]34CCCN3C[C@H](F)C4)nc3c(C#N)c(-c4ccc(F)c5sc(N)c(C#N)c45)c(Cl)cc23)C1 [Compound 379]
< 0.1 µM	–	C=CC(=O)N1CCC(N(C)c2nc(OC[C@@H]3CCCN3CC)nc3c(F)c(-c4ccc(F)c5sc(N)c(C#N)c45)c(Cl)cc23)[C@H]1C (stereo partly drawn) [Compound 464]
